Source: PubChem BioAssay (NCI)
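Step 1: Grow cells in 96-well plates. Step 2: Expose to compound for 48 hours at 5 concentrations. Step 3: Interpolate endpoints linearly; if unreached, use highest concentration. At the GI50, growth is halved. TGI: total growth inhibition.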

Experiments:
Assay in all cases: growth of human tumour cells (NCI), 48 h
[1] = test system: OVCAR-5 ovarian
[2] = test system: UACC-257 melanoma
[3] = test system: 786-0 renal
[4] = test system: KM12 colon
[5] = test system: OVCAR-8 ovarian
[6] = test system: UO-31 renal
[7] = test system: LOX IMVI melanoma
[8] = test system: SK-MEL-2 melanoma
[9] = test system: K-562 leukemia
[10] = test system: COLO 205 colon
[11] = test system: U251 CNS
[12] = test system: IGROV1 ovarian
[13] = test system: SK-OV-3 ovarian
[14] = test system: T-47D breast
[15] = test system: DU-145 prostate
[16] = test system: UACC-62 melanoma
[17] = test system: PC-3 prostate
[18] = test system: SF-295 CNS
[19] = test system: HCT-116 colon
[20] = test system: NCI-H460 lung
[21] = test system: MDA-MB-435
[22] = test system: SN12C renal
[23] = test system: NCI-H23 lung
[24] = test system: TK-10 renal
[25] = test system: BT-549 breast
[26] = test system: RPMI-8226 leukemia
[27] = test system: EKVX NSCLC
[28] = test system: HL-60(TB) leukemia
[29] = test system: HS 578T breast
[30] = test system: MCF7 breast
[31] = test system: CAKI-1 renal
[32] = test system: NCI-H522 lung
[33] = test system: MDA-MB-231 breast
[34] = test system: ACHN renal
[35] = test system: SF-268 CNS
[36] = test system: OVCAR-3 ovarian
[37] = test system: SNB-19 CNS
[38] = test system: A549 NSCLC
[39] = test system: SW-620 colon
[40] = test system: HCT-15 colon
[41] = test system: NCI/ADR-RES ovarian
[42] = test system: HOP-62 NSCLC
[43] = test system: M14 melanoma
[44] = test system: HOP-92 NSCLC
[45] = test system: SK-MEL-5 melanoma
[46] = test system: SK-MEL-28 melanoma
[47] = test system: SR leukemia
[48] = test system: SF-539 CNS
[49] = test system: HT29 colon
[50] = test system: NCI-H226 lung
[51] = test system: HCC-2998 colon
[52] = test system: SNB-75 CNS
[53] = test system: A498 renal
[54] = test system: CCRF-CEM leukemia
[55] = test system: MALME-3M melanoma
[56] = test system: OVCAR-4 ovarian
[57] = test system: RXF 393 renal

N#CC1=C(N)NC(=S)NC1c1ccc(-c2ccc(-c3nc4ccccc4o3)cc2)s1 (centres undefined)
GI50 [1]: 16 µM | TGI [1]: 34.6 µM | GI50 [2]: 11.2 µM | TGI [2]: 26.8 µM | GI50 [3]: 11.1 µM | TGI [3]: 22.4 µM | GI50 [4]: 15.1 µM | TGI [4]: > 50 µM | GI50 [5]: 10.1 µM | TGI [5]: 22.4 µM | GI50 [6]: 7.89 µM | TGI [6]: 17 µM | GI50 [7]: 9.58 µM | TGI [7]: 21.4 µM | GI50 [8]: 9.2 µM | TGI [8]: 28.8 µM | GI50 [9]: 4.7 µM | TGI [9]: 15.5 µM | GI50 [10]: 11.3 µM | TGI [10]: 33.4 µM | GI50 [11]: 7.73 µM | TGI [11]: 14.4 µM | GI50 [12]: 2.21 µM | TGI [12]: 12.7 µM | GI50 [13]: 11 µM | TGI [13]: 31 µM | GI50 [14]: 15.4 µM | TGI [14]: > 50 µM | GI50 [15]: 17.6 µM | TGI [15]: > 50 µM | GI50 [16]: 9.2 µM | TGI [16]: 21.3 µM | GI50 [17]: 9.78 µM | TGI [17]: > 50 µM | GI50 [18]: 13.3 µM | TGI [18]: 38.8 µM | GI50 [19]: 7.71 µM | TGI [19]: 14.4 µM | GI50 [20]: 7.58 µM | TGI [20]: 15.9 µM | GI50 [21]: 16.5 µM | TGI [21]: 48.5 µM | GI50 [22]: 10.6 µM | TGI [22]: 28.4 µM | GI50 [23]: 12 µM | TGI [23]: 27.4 µM | GI50 [24]: 18.6 µM | TGI [24]: > 50 µM | GI50 [25]: 17.5 µM | TGI [25]: 47.6 µM | GI50 [26]: 16 µM | TGI [26]: > 50 µM | GI50 [27]: 14 µM | TGI [27]: 48.2 µM | GI50 [28]: 24.1 µM | TGI [28]: > 50 µM | GI50 [29]: 16.1 µM | TGI [29]: 45.1 µM | GI50 [30]: 6.7 µM | TGI [30]: 19.2 µM | GI50 [31]: 10.1 µM | TGI [31]: 36.4 µM | GI50 [32]: 9.65 µM | TGI [32]: 20.8 µM | GI50 [33]: 7.16 µM | TGI [33]: 16.4 µM | GI50 [34]: 6.54 µM | TGI [34]: 12.9 µM | GI50 [35]: 10.7 µM | TGI [35]: 26.5 µM | GI50 [36]: 10.7 µM | TGI [36]: 37.2 µM | GI50 [37]: 13.3 µM | TGI [37]: > 50 µM | GI50 [38]: 9 µM | TGI [38]: 20.2 µM | GI50 [39]: 21.3 µM | TGI [39]: > 50 µM | GI50 [40]: 12.3 µM | TGI [40]: > 50 µM | GI50 [41]: 12.1 µM | TGI [41]: 30.1 µM | GI50 [42]: 9.33 µM | TGI [42]: 20.1 µM | GI50 [43]: 12.6 µM | TGI [43]: 30.3 µM | GI50 [44]: 9.84 µM | TGI [44]: > 50 µM | GI50 [45]: 9.14 µM | TGI [45]: 18.3 µM

O=C(CSCC(=O)N/N=C/c1ccccc1O)N/N=C\c1ccccc1O
GI50 [46]: 8.05 µM | TGI [46]: > 100 µM | GI50 [1]: 5.11 µM | TGI [1]: > 100 µM | GI50 [2]: 3.09 µM | TGI [2]: 22.5 µM | GI50 [47]: 0.668 µM | TGI [47]: > 100 µM | GI50 [3]: 1.95 µM | TGI [3]: 6.59 µM | GI50 [4]: 2.42 µM | TGI [4]: > 100 µM | GI50 [48]: 2.1 µM | TGI [48]: 23 µM | GI50 [5]: 1.92 µM | TGI [5]: > 100 µM | GI50 [6]: 1.06 µM | TGI [6]: 37.3 µM | GI50 [7]: 0.748 µM | TGI [7]: > 100 µM | GI50 [8]: 5.35 µM | TGI [8]: > 100 µM | GI50 [9]: 2.39 µM | TGI [9]: > 100 µM | GI50 [49]: 5.64 µM | TGI [49]: > 100 µM | GI50 [10]: 2.19 µM | TGI [10]: > 100 µM | GI50 [11]: 1.06 µM | TGI [11]: > 100 µM | GI50 [12]: 1.91 µM | TGI [12]: > 100 µM | GI50 [13]: 2.4 µM | TGI [13]: > 100 µM | GI50 [14]: 2.36 µM | TGI [14]: > 100 µM | GI50 [15]: 1.92 µM | TGI [15]: > 100 µM | GI50 [16]: 1.61 µM | TGI [16]: 7.13 µM | GI50 [50]: 3.43 µM | TGI [50]: > 100 µM | GI50 [17]: 3.06 µM | TGI [17]: > 100 µM | GI50 [18]: 1.78 µM | TGI [18]: > 100 µM | GI50 [19]: 1.06 µM | TGI [19]: > 100 µM | GI50 [20]: 2.27 µM | TGI [20]: > 100 µM | GI50 [21]: 3.44 µM | TGI [21]: > 100 µM | GI50 [22]: 2.46 µM | TGI [22]: > 100 µM | GI50 [23]: 3.33 µM | TGI [23]: > 100 µM | GI50 [24]: 1.83 µM | TGI [24]: > 100 µM | GI50 [25]: 1.73 µM | TGI [25]: 56.3 µM | GI50 [26]: 3.49 µM | TGI [26]: > 100 µM | GI50 [27]: 2.44 µM | TGI [27]: > 100 µM | GI50 [28]: 1.49 µM | TGI [28]: 5.11 µM | GI50 [29]: 26.7 µM | TGI [29]: > 100 µM | GI50 [30]: 5.85 µM | TGI [30]: > 100 µM | GI50 [51]: 1.61 µM | TGI [51]: 34.4 µM | GI50 [31]: 0.627 µM | TGI [31]: 9.82 µM | GI50 [32]: 3.61 µM | TGI [32]: > 100 µM | GI50 [52]: 67.7 µM | TGI [52]: > 100 µM | GI50 [33]: 4.16 µM | TGI [33]: > 100 µM | GI50 [53]: 14.3 µM | TGI [53]: > 100 µM | GI50 [34]: 0.877 µM | TGI [34]: 25 µM | GI50 [35]: 1.2 µM | TGI [35]: > 100 µM | GI50 [36]: 4.76 µM | TGI [36]: > 100 µM | GI50 [37]: 2.95 µM | TGI [37]: > 100 µM | GI50 [38]: 3.2 µM | TGI [38]: > 100 µM | GI50 [39]: 3.25 µM | TGI [39]: > 100 µM | GI50 [54]: 0.433 µM | TGI [54]: > 100 µM | GI50 [40]: 0.52 µM | TGI [40]: > 100 µM | GI50 [41]: 2.87 µM | TGI [41]: > 100 µM | GI50 [42]: 1.31 µM | TGI [42]: > 100 µM | GI50 [55]: 2.29 µM | TGI [55]: 25.2 µM | GI50 [43]: 1.51 µM | TGI [43]: 12.5 µM | GI50 [44]: 1.73 µM | TGI [44]: > 100 µM | GI50 [56]: 1.72 µM | TGI [56]: > 100 µM | GI50 [45]: 1.86 µM | TGI [45]: > 100 µM | GI50 [57]: 2.46 µM | TGI [57]: > 100 µM
